Drawing on PubChem BioAssay AID330 (DTP/NCI, 2004), this text covers T/C for twelve molecules.

Several values for one entry are separate records, joined by “and”; a condition that tells them apart may be missing. Equal entries are not always repeated. Toxic doses and inconclusive results are not listed.

The test system of this experiment is P388 leukemia ip, CD2F1 mice, survival T/C. The experiment is described as follows: NCI In Vivo Anticancer Drug Screen. Data for tumor model P388 Leukemia (intraperitoneal) in CD2F1 (CDF1) mice. The following applies: endpoint: median survival time, higher = longer survival. The essentials: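 Mice carrying the transplanted tumor received test compound or vehicle. Survival was recorded in each group, and the value is the treated-group measurement divided by that of the vehicle-treated control group.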

Setting [1] is: dose: 50.0 mg/kg/injection, schedule: Q01DX009 (ip), vehicle: saline.
Where [2] appears, read: dose: 200.0 mg/kg/injection, schedule: Q01DX009 (ip), vehicle: saline.
Setting [3] is: dose: 200.0 mg/kg/injection, schedule: Q04DX003 (ip), vehicle: saline.
[4] abbreviates: dose: 400.0 mg/kg/injection, schedule: Q04DX003 (ip), vehicle: saline.
Where [5] appears, read: dose: 60.0 mg/kg/injection, schedule: Q01DX005 (ip), vehicle: saline with Tween-80.
[6] abbreviates: dose: 120.0 mg/kg/injection, schedule: Q01DX005 (ip), vehicle: saline with Tween-80.

For `O=CN1CCN(c2ccc([N+](=O)[O-])c3no[n+]([O-])c23)CC1`, the T/C runs as follows: (dose: 1.87 mg/kg/injection, schedule: Q01DX009 (ip), vehicle: saline) 107 % of control; (dose: 1.87 mg/kg/injection, schedule: Q01DX009 (ip), vehicle: suspension in saline) 94 % of control; (dose: 3.75 mg/kg/injection, schedule: Q01DX009 (ip), vehicle: saline) 92 % of control; (dose: 3.75 mg/kg/injection, schedule: Q01DX009 (ip), vehicle: suspension in saline) 113 % of control; (dose: 7.5 mg/kg/injection, schedule: Q01DX009 (ip), vehicle: saline) 86 % of control; (dose: 7.5 mg/kg/injection, schedule: Q01DX009 (ip), vehicle: suspension in saline) 116 % of control. Further, the T/C is, setting by setting: (dose: 15.0 mg/kg/injection, schedule: Q01DX009 (ip), vehicle: saline) 91 % of control; (dose: 15.0 mg/kg/injection, schedule: Q01DX009 (ip), vehicle: suspension in saline) 116 % of control.

On to `Cc1c2oc3c(C)ccc(C(=O)NCCc4ccccc4)c3nc-2c(C(=O)NCCc2ccccc2)c(N)c1=O`, for which the T/C is 92 % of control (dose: 50.0 mg/kg/injection, schedule: Q04DX003 (ip), vehicle: DMSO); 91 % of control (dose: 100.0 mg/kg/injection, schedule: Q04DX003 (ip), vehicle: DMSO); 90 % of control (dose: 200.0 mg/kg/injection, schedule: Q04DX003 (ip), vehicle: DMSO).

For `CCCCCCCCCCCCCCCCOc1ccc(S(=O)(=O)N/N=c2/sc(-c3ccccc3Cl)nn2C)cc1C(=O)O`, the T/C by setting is: under setting [1], 100 % of control; (dose: 100.0 mg/kg/injection, schedule: Q01DX009 (ip), vehicle: saline) 100 % of control; under setting [2], 96 % of control.

Consider `C=C1CC/C=C(/C)C(=O)C(OC(C)=O)C2C1CC2(C)C` (configuration not stated), for which the T/C by setting is: (dose: 1.75 mg/kg/injection, schedule: Q01DX009 (ip), vehicle: saline + Tween-80 + alcohol) 105 % of control; (dose: 1.75 mg/kg/injection, schedule: Q01DX009 (ip), vehicle: saline + alcohol) 105 % of control and 111 % of control; (dose: 3.5 mg/kg/injection, schedule: Q01DX009 (ip), vehicle: saline + Tween-80 + alcohol) 102 % of control; (dose: 3.5 mg/kg/injection, schedule: Q01DX009 (ip), vehicle: saline + alcohol) 102 % of control and 103 % of control and 114 % of control; (dose: 7.0 mg/kg/injection, schedule: Q01DX009 (ip), vehicle: saline + Tween-80 + alcohol) 111 % of control; (dose: 7.0 mg/kg/injection, schedule: Q01DX009 (ip), vehicle: saline + alcohol) 101 % of control and 105 % of control and 114 % of control. The T/C by setting is: (dose: 14.0 mg/kg/injection, schedule: Q01DX009 (ip), vehicle: saline + Tween-80 + alcohol) 116 % of control; (dose: 14.0 mg/kg/injection, schedule: Q01DX009 (ip), vehicle: saline + alcohol) 111 % of control and 113 % of control and 114 % of control; (dose: 28.0 mg/kg/injection, schedule: Q01DX009 (ip), vehicle: saline + Tween-80 + alcohol) 120 % of control; (dose: 28.0 mg/kg/injection, schedule: Q01DX009 (ip), vehicle: saline + alcohol) 111 % of control and 115 % of control and 121 % of control; (dose: 56.0 mg/kg/injection, schedule: Q01DX009 (ip), vehicle: saline + Tween-80 + alcohol) 116 % of control.

Take `COc1cc2c(cc1OC)C13CC(=O)N(C(C)=O)N1CCCN3C2=O` (configuration not stated): the T/C (dose: 30.0 mg/kg/injection, schedule: Q01DX005 (ip), vehicle: Klucel (hydroxypropylcellulose) (HPC)) is 106 % of control; the T/C (dose: 60.0 mg/kg/injection, schedule: Q01DX005 (ip), vehicle: Klucel (hydroxypropylcellulose) (HPC)) was 97 % of control; the T/C (dose: 120.0 mg/kg/injection, schedule: Q01DX005 (ip), vehicle: Klucel (hydroxypropylcellulose) (HPC)) was 91 % of control and 97 % of control; the T/C (dose: 240.0 mg/kg/injection, schedule: Q01DX005 (ip), vehicle: Klucel (hydroxypropylcellulose) (HPC)) is 88 % of control.

For the molecule `CN(C)CCNc1cccc2oc3ccc(O)cc3c(=O)c12`, the T/C is, setting by setting: (dose: 25.0 mg/kg/injection, schedule: Q01DX005 (ip), vehicle: Klucel (hydroxypropylcellulose) (HPC)) 101 % of control; (dose: 50.0 mg/kg/injection, schedule: Q01DX005 (ip), vehicle: Klucel (hydroxypropylcellulose) (HPC)) 107 % of control; (dose: 100.0 mg/kg/injection, schedule: Q01DX005 (ip), vehicle: Klucel (hydroxypropylcellulose) (HPC)) 110 % of control; (dose: 200.0 mg/kg/injection, schedule: Q01DX005 (ip), vehicle: Klucel (hydroxypropylcellulose) (HPC)) 114 % of control.

In the case of `O=C(CN1CC1)NCCCCCCCCNC(=O)CN1CC1`, the T/C runs as follows: (dose: 25.0 mg/kg/injection, schedule: Q04DX003 (ip), vehicle: saline with Tween-80) 159 % of control; (dose: 33.0 mg/kg/injection, schedule: Q04DX003 (ip), vehicle: saline with Tween-80) 200 % of control; (dose: 50.0 mg/kg/injection, schedule: Q04DX003 (ip), vehicle: saline with Tween-80) 181 % of control and 209 % of control.

As for `[Mn].[NH-]C(CSSCC(N)C(=O)O)C(=O)O` (configuration not stated), the T/C (dose: 100.0 mg/kg/injection, schedule: Q04DX003 (ip), vehicle: saline) is 97 % of control; the T/C under setting [3] is 114 % of control; the T/C under setting [4] was 106 % of control.

Consider `NNC(=O)c1nnc(N)o1`, for which the T/C was 106 % of control under setting [5]; 106 % of control under setting [6]; 95 % of control (dose: 240.0 mg/kg/injection, schedule: Q01DX005 (ip), vehicle: saline with Tween-80).

For `CCc1c2cc(OC)c(OC)cc2cc2c3cc(OC)c(OC)cc3cc[n+]12` (tested in a mixture with another compound), the T/C was 108 % of control (dose: 8.8 mg/kg/injection, schedule: Q04DX003 (ip), vehicle: saline); 122 % of control (dose: 20.0 mg/kg/injection, schedule: Q04DX003 (ip), vehicle: saline); 151 % of control (dose: 25.0 mg/kg/injection, schedule: Q01DX009 (ip), vehicle: saline); 153 % of control (dose: 29.3 mg/kg/injection, schedule: Q01DX009 (ip), vehicle: saline with Tween-80); 167 % of control (dose: 37.5 mg/kg/injection, schedule: Q01DX009 (ip), vehicle: saline with Tween-80); 170 % of control (dose: 44.0 mg/kg/injection, schedule: Q01DX009 (ip), vehicle: saline with Tween-80). The T/C under setting [1] is 178 % of control; the T/C (dose: 66.0 mg/kg/injection, schedule: Q01DX009 (ip), vehicle: saline with Tween-80) is 201 % of control; the T/C (dose: 75.0 mg/kg/injection, schedule: Q01DX009 (ip), vehicle: saline with Tween-80) is 208 % of control; the T/C (dose: 88.0 mg/kg/injection, schedule: Q04DX003 (ip), vehicle: saline) was 150 % of control; the T/C (dose: 100.0 mg/kg/injection, schedule: Q04DX003 (ip), vehicle: saline with Tween-80) is 154 % of control; the T/C (dose: 150.0 mg/kg/injection, schedule: Q01DX009 (ip), vehicle: saline with Tween-80) is 234 % of control. Moreover, the T/C reads like this: (dose: 150.0 mg/kg/injection, schedule: Q01DX009 (ip), vehicle: saline) 244 % of control and 92 % of control; under setting [2], 171 % of control; (dose: 200.0 mg/kg/injection, schedule: Q04DX003 (ip), vehicle: saline with Tween-80) 181 % of control; under setting [3], 150 % of control and 191 % of control; (dose: 225.0 mg/kg/injection, schedule: Q01DX009 (ip), vehicle: saline) 218 % of control; (dose: 300.0 mg/kg/injection, schedule: Q04DX003 (ip), vehicle: saline) 195 % of control. Moreover, the T/C is 90 % of control (dose: 400.0 mg/kg/injection, schedule: Q04DX003 (ip), vehicle: saline with Tween-80) and 104 % of control under setting [4].

In the case of `CCCCCCCCCCCCCCCCN(C)C(C)c1ccccc1` (configuration not stated), the T/C is 103 % of control (dose: 100.0 mg/kg/injection, schedule: Q04DX002 (ip), vehicle: saline with Tween-80); 101 % of control (dose: 200.0 mg/kg/injection, schedule: Q04DX002 (ip), vehicle: saline with Tween-80); 104 % of control (dose: 400.0 mg/kg/injection, schedule: Q04DX002 (ip), vehicle: saline with Tween-80).

Turning to `CCn1cnc2sc3c(c2c1=O)CCCC3`, the T/C reads like this: under setting [5], 97 % of control; under setting [6], 98 % of control.
